Some test systems named below: NCI-H226; MDA-MB-435; COLO 205; DU-145; HT-29; LOX IMVI; BT-549; OVCAR-8; NCI/ADR-RES; SK-OV-3; HOP-62; HCT-116; KM12; NCI-H522; ACHN; HCC 2998; MDA-N; SW-620; CCRF-CEM; CAKI-1.
Holding throughout (experiment): inhibition of tumour cell growth, NCI panel, 48 h

The structures appear in SMILES notation.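 Step 1: Grow cells in 96-well plates. Step 2: Expose to compound for 48 hours at 5 concentrations. Step 3: Interpolate endpoints linearly; if unreached, use highest concentration. GI50: concentration for 50% inhibition of growth.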 Calls of active or inactive are those of the source. Cut-off read from the data, not from the text of the source: active = GI50 up to about 1.1 µM and inactive = higher.

Take `COc1ccc(OC)c(CSc2ccc(OC)c(OC)c2)c1`: the GI50 with NCI-H226 is > 71.4 µM (inactive); with MDA-MB-435 it was > 79.4 µM (inactive); in the test with COLO 205, > 100 µM (inactive); in the test on DU-145, > 100 µM (inactive); in the test with HT-29, > 73.3 µM (inactive); with LOX IMVI it was > 64.6 µM (inactive). The GI50 with BT-549 is > 85.1 µM (inactive); in the test with OVCAR-8 it was > 95.3 µM (inactive); in the test on NCI/ADR-RES, > 70.8 µM (inactive); in the test on SK-OV-3 it was > 100 µM (inactive); with HOP-62 it was > 100 µM (inactive); in the test on HCT-116, > 86.9 µM (inactive). In addition, the GI50 was > 100 µM (inactive) in the test on KM12; > 90.2 µM (inactive) in the test with NCI-H522; > 100 µM (inactive) in the test with ACHN; 97.1 µM (inactive) in the test with HCC 2998; > 77.6 µM (inactive) in the test on MDA-N; > 100 µM (inactive) in the test with SW-620. In addition, the GI50 in the test on CCRF-CEM and with CAKI-1 was > 100 µM (inactive) throughout.
In the case of `CCCCCCCCCCCCCCNC(=O)CCC(NC(=O)c1ccc(N(C)Cc2cnc3nc(N)nc(N)c3n2)cc1)C(=O)NCCCCCCCCCCCCCC` (stereo not given), the GI50 in the test on NCI-H226 is > 52.1 µM (inactive); in the test on MDA-MB-435 it was 0.207 µM (active); in the test with COLO 205 it was 11.8 µM (inactive); in the test on DU-145, 13.9 µM (inactive); with HT-29 it was 4.13 µM (inactive); with LOX IMVI it was 0.437 µM (active). The GI50 is 12.3 µM (inactive) in the test on BT-549; 4.36 µM (inactive) in the test on OVCAR-8; 39.8 µM (inactive) in the test on NCI/ADR-RES; 10.4 µM (inactive) in the test on SK-OV-3; 9.29 µM (inactive) in the test on HOP-62; 0.698 µM (active) with HCT-116. Further, the GI50 in the test on KM12 was 2.45 µM (inactive); in the test with NCI-H522, 5.04 µM (inactive); with ACHN, 6.38 µM (inactive); in the test on HCC 2998 it was 6.01 µM (inactive); in the test on MDA-N, 0.244 µM (active); in the test on SW-620, 0.288 µM (active). Further, the GI50 with CCRF-CEM was 0.773 µM (active); with CAKI-1, 10.4 µM (inactive).
As to `Cc1ccc([N+](=O)[O-])cc1S(=O)(=O)Nc1ccc(C2=NN(S(=O)(=O)c3cc([N+](=O)[O-])ccc3C)C(c3ccccc3O)C2)cc1` (stereo not given), the GI50 in the test on NCI-H226, with MDA-MB-435, with COLO 205, with DU-145, with HT-29 and in the test on LOX IMVI was > 100 µM (inactive) in each case. Also, the GI50 with BT-549 was > 100 µM (inactive); in the test on OVCAR-8, > 100 µM (inactive); with NCI/ADR-RES, 99.8 µM (inactive); in the test with SK-OV-3, 51.8 µM (inactive); in the test with HOP-62, 47.5 µM (inactive); in the test on HCT-116, > 100 µM (inactive). Moreover, the GI50 in the test with KM12 was > 100 µM (inactive); in the test on NCI-H522, 44 µM (inactive); with ACHN, 80.4 µM (inactive); in the test on HCC 2998, > 100 µM (inactive); in the test with MDA-N, > 100 µM (inactive); in the test with SW-620, > 100 µM (inactive). Further, the GI50 in the test with CCRF-CEM and in the test on CAKI-1 was > 100 µM (inactive) throughout.
For `CCOC(=O)/C(C[C@H]1OC(C)(C)O[C@@H]1[C@H]1COC(C)(C)O1)=N/O`, the GI50 with NCI-H226, in the test on MDA-MB-435, with COLO 205, with DU-145, with HT-29 and in the test on LOX IMVI was > 100 µM (inactive) in each case. For the same molecule, the GI50 in the test with BT-549, in the test with OVCAR-8, with NCI/ADR-RES, in the test on SK-OV-3, in the test on HOP-62 and with HCT-116 was > 100 µM (inactive) each time. The GI50 with KM12, in the test on NCI-H522, with ACHN, with HCC 2998, with MDA-N and with SW-620 was > 100 µM (inactive) each time. Also, the GI50 in the test on CCRF-CEM and in the test with CAKI-1 was > 100 µM (inactive) each time.
Turning to `COc1ccc(NC(=O)CC(=O)n2nc(-c3ccccc3)c(/N=N/c3ccc(C)cc3)c2-c2ccccc2)cc1`, the GI50 in the test on NCI-H226 was 21.7 µM (inactive); with MDA-MB-435, > 100 µM (inactive); in the test with COLO 205, > 100 µM (inactive); in the test with DU-145 it was > 59.7 µM (inactive); in the test with HT-29, > 88.3 µM (inactive); in the test on LOX IMVI, 38.8 µM (inactive). Further, the GI50 was 21.2 µM (inactive) in the test with BT-549; 21.7 µM (inactive) with OVCAR-8; 25.7 µM (inactive) with NCI/ADR-RES; 16.4 µM (inactive) in the test with SK-OV-3; 10.4 µM (inactive) in the test on HOP-62; 34.1 µM (inactive) in the test on HCT-116. Moreover, the GI50 in the test with KM12 was 65.6 µM (inactive); in the test on NCI-H522, 29 µM (inactive); in the test on ACHN, 32.5 µM (inactive); with HCC 2998, 62.8 µM (inactive); in the test on MDA-N it was > 100 µM (inactive); with SW-620, 69.5 µM (inactive). The GI50 with CCRF-CEM is > 84.7 µM (inactive); in the test with CAKI-1, 55.3 µM (inactive).
Take `Nc1nc(=O)c2cc(NCc3ccc(C(=O)NC(CCC(=O)O)C(=O)O)cc3)ccc2[nH]1` (stereo not given): the GI50 was > 100 µM (inactive) in the test on NCI-H226; > 100 µM (inactive) in the test on MDA-MB-435; > 100 µM (inactive) with COLO 205; > 100 µM (inactive) with DU-145; > 100 µM (inactive) in the test on HT-29; 14.1 µM (inactive) in the test on LOX IMVI. In addition, the GI50 was > 100 µM (inactive) in the test with BT-549; 68.2 µM (inactive) in the test on OVCAR-8; > 100 µM (inactive) with NCI/ADR-RES; > 100 µM (inactive) in the test on SK-OV-3; > 100 µM (inactive) in the test with HOP-62; > 100 µM (inactive) with HCT-116. In addition, the GI50 in the test on KM12 was > 100 µM (inactive); with NCI-H522, > 100 µM (inactive); in the test with ACHN, 4.31 µM (inactive); in the test on HCC 2998 it was 39.8 µM (inactive); with MDA-N, > 100 µM (inactive); in the test with SW-620, > 100 µM (inactive). For the same molecule, the GI50 is > 100 µM (inactive) with CCRF-CEM and 34.4 µM (inactive) in the test on CAKI-1.

(Values after ChEMBL document CHEMBL1201862, “PubChem BioAssay data set” (2004).)
